US20230405134A1, “NOVEL PROTAC CHIMERIC COMPOUND, AND PHARMACEUTICAL COMPOSITION COMPRISING SAME FOR PREVENTING, AMELIORATING, OR TREATING DISEASES THROUGH TARGET PROTEIN DEGRADATION” (POSTECH RESEARCH AND BUSINESS DEVELOPMENT FOUNDATION, priority 2020, published 2023)
Where a SMILES comes first, the peptide text is derived from it. Bridges are numbered along the chain shown (N, C = ends). [ ]: non-standard residue; d: D form. Cha = N[C@@H](CC1CCCCC1)C(=O)O; S5 = C=CCCC[C@](C)(N)C(=O)O

What was measured:
[1] = tested on: MDA-MB-231; experiment: Cell viability assay; type: cell-based, human; conditions: MDA-MB-231, various concentrations, 48 hours
Method: (§1) To further confirm the above results, an MTT cell viability assay was performed. MDA-MB-231 (1×10^4 cells/well), HEK293T (1×10^4 cells/well) and Colo205 (2×10^4 cells/well) cells were seeded in a 96-well plate, and cultured under the conditions of 37° C. and 5% carbon dioxide. After 24 hours, the cells were washed twice with DPBS and treated with DMSO or various concentrations of ND1-YL2 in Opti-MEM medium for 48 hours. Cell viability was measured by the Cyto X cell viability assay kit (LPS solution) according to the manufacturer's instructions.

[2] = tested on: Colo205; experiment: Cell viability assay; type: cell-based, human; conditions: Colo205, various concentrations, 48 hours
Method: as §1

[3] = target: T1, UBR box (Saccharomyces cerevisiae, UniProt P19812); experiment: Competitive fluorescence polarization (FP) assay against fluorescein-labeled RLAA peptide; type: binding, S. cerevisiae
T1 construct: UBR box (residues 113-194) in the UBR1 E3 ubiquitin ligase of S. cerevisiae; made in house
T1 sequence (P19812 113-194): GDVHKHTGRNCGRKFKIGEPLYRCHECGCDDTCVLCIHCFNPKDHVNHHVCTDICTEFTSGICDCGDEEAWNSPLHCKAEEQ
Method: (§2) An expression plasmid of the PAS-B domain of human SRC-1 (residues 257-385) tagged with His6 was provided by Professor John. A. Robinson. (ChemBioChem 2008, 9, 1318-1322). The plasmid was transformed into BL21 (DE3) pLysS cells, and the protein was cultured in Luria-Bertani broth medium and induced with 0.5 mM IPTG at 18° C. for 16 hours. Cell disruption was performed by ultrasonic treatment in a buffer (50 mM Tris-HCl pH 8.0, 200 mM NaCl and 1 mM TCEP), and insoluble materials were removed by centrifugation. HisTrap™ column (GE Healthcare, 17-5255-01) chromatography was performed on the buffer and 500 mM of imidazole was applied for elution. In order to remove the His6-tag, TEV protease was used and the cleaved samples were loaded in HisTrap™ as described above. The SRC-1 was further purified by size exclusion chromatography (HiLoad™ 16/600 Superdex 75 pg) in a final buffer of 20 mM Tris-HCl pH 7.5, 150 mM NaCl and 1 mM TCEP. The expression and purification of the UBR box (residues 113-194) in the UBR1 E3 ubiquitin ligase of S. cerevisiae was performed in the previous manner. (Nat. Struct. Mol. Biol. 2010, 17, 1175-1181).
A competitive fluorescence polarization (FP) assay was performed to evaluate the binding affinity of ND1-YL2 to the target protein. A fluorescently labeled 15-mer STAT-6 peptide (100 nM) was cultured with the PAS-B domain (5 μM) of SRC-1 in a binding buffer (50 mM HEPES, pH 7.4, 150 mM NaCl, and 0.01% Tween 20). After being placed in black Costar 384-well plates for 30 minutes, they were treated with various concentrations of YL2 and ND1-YL2. After further incubation for 1 hour, the polarization of fluorescence was measured by a Tecan F200 microplate reader (excitation wavelength: 485 nm; emission wavelength: 535 nm). IC50 values were determined using non-linear regression and fitted with GraphPad Prism® 4 software using the following equation: Y=Bottom+(Top-Bottom)/(1+10^X-LogIC50) (FIG. 11A). […] The binding affinity was calculated as described above (FIG. 11B).

[4] = target: SRC-1 (Homo sapiens, UniProt Q15788); experiment: SRC-1 expression level in MDA-MB-231 cells by Western blot; type: cell-based; design: endogenous in cells; host or cells: MDA-MB-231
SRC-1, sequence (Q15788 whole entry): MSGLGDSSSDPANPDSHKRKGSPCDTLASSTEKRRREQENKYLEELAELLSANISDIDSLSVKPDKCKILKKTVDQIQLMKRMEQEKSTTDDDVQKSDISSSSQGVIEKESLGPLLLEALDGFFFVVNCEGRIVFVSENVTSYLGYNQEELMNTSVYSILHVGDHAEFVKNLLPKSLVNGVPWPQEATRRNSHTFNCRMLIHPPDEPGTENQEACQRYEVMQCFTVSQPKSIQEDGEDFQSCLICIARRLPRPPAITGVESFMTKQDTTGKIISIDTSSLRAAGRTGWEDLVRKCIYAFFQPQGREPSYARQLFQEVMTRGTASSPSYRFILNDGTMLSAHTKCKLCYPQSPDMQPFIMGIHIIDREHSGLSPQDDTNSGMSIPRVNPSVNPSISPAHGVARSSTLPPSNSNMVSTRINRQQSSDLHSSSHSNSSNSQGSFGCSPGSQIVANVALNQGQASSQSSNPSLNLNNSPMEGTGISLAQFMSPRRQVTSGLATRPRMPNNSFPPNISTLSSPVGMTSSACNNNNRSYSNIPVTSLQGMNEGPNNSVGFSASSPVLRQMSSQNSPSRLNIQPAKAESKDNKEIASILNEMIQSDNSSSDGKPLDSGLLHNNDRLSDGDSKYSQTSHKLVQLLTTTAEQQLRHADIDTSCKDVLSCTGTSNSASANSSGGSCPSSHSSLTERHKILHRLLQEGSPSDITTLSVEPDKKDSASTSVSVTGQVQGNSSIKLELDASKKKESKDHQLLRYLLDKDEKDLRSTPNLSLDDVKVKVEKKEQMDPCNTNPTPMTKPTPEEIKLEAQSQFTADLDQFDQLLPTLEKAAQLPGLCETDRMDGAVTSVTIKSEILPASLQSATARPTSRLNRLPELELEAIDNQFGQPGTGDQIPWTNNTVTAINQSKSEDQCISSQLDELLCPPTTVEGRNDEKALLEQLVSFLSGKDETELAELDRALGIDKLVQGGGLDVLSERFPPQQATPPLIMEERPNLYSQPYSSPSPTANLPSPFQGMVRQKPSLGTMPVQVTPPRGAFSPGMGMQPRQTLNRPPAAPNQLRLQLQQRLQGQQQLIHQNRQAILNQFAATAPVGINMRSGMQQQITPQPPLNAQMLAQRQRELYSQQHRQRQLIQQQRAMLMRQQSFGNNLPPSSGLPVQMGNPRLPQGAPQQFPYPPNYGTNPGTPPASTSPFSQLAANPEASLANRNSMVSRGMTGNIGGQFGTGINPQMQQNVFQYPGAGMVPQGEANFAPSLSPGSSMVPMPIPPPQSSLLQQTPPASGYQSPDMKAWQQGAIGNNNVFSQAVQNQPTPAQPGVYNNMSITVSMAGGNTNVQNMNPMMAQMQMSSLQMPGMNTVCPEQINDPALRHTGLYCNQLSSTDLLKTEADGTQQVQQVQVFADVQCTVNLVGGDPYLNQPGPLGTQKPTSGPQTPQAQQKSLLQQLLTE

[5] = tested on: MDA-MB-231-RFP cells; experiment: Pulmonary metastasis model in mice; type: in vivo, BALB/c-nude mice; conditions: cells treated with 100 μM for 12 hours, intravenously injected, flow cytometry of lungs after two weeks
Method: It was confirmed whether ND1-YL2 could inhibit cancer metastasis through mice model. MDA-MB-231-RFP cells expressing red fluorescent protein (RFP) were cultured in DMEM (Welgene) containing 10% FBS (Omega Scientific Inc.) under the conditions of 37° C. and 5% CO2. 5-week-old BALB/c-nude mice (OriententBio Inc.) were maintained in a sterile environment and had free access to food and water. All animal procedures were approved by the Organ Animal Care and Use Committee of POSTECH. For the pulmonary metastasis model, MDA-MB-231-RFP cells treated with DMSO or 100 μM of ND1-YL2 for 12 hours were intravenously injected at 10^6 cells per mouse, followed by […]. The lungs were harvested and prepared in a single cell suspension and filtered through a 100 μm cell strainer (Corning). It was further cultured for 2 minutes in ACK lysis buffer (Gibco). The samples were analyzed by LSR Fortessa (BD Biosciences). […] To visualize lung metastasis, lung sections were prepared and dyed with Haemotoxylin and Eosin (H&E) stain.

[6] = target: T2, PAS-B domain of SRC-1 (Homo sapiens, UniProt Q15788); experiment: Competitive fluorescence polarization (FP) assay against fluorescently labeled STAT-6 peptide; type: binding; conditions: STAT-6 peptide 100 nM, PAS-B domain 5 μM
T2 construct: PAS-B domain of human SRC-1 (residues 257-385) tagged with His6; His6 (cleaved yes); made in house; host or cells: E. coli BL21 (DE3) pLysS
T2 sequence (Q15788 257-385): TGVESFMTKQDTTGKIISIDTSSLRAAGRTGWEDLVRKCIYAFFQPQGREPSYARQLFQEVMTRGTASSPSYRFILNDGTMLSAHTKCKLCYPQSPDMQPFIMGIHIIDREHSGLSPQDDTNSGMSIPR
Method: as §2, with “The SRC-1 was further purified by size exclusion chromatography (HiLoad™ 16/600 Superdex 75 pg) in a final buffer of 20 mM Tris-HCl pH 7.5, 150 mM NaCl and 1 mM TCEP. The expression and purification of the UBR box (residues 113-194) in the UBR1 E3 ubiquitin ligase of S. cerevisiae was performed in the previous manner. (Nat. Struct. Mol. Biol. 2010, 17, 1175-1181).” left out
A competitive fluorescence polarization (FP) assay was performed to evaluate the binding affinity of ND1-YL2 to the target protein. […] After further incubation for 1 hour, the polarization of fluorescence was measured by a Tecan F200 microplate reader (excitation wavelength: 485 nm; emission wavelength: 535 nm). IC50 values were determined using non-linear regression and fitted with GraphPad Prism® 4 software using the following equation: Y=Bottom+(Top-Bottom)/(1+10^X-LogIC50) (FIG. 11A). […] The binding affinity was calculated as described above (FIG. 11B).

CC(C)C[C@H](NC(=O)[C@H](C)NC(=O)[C@H](C)NC(=O)[C@H](C)NC(=O)[C@H](C)NC(=O)[C@H](CC(C)C)NC(=O)[C@@H](N)CCCNC(=N)N)C(=O)N[C@@H](CC(C)C)C(=O)N1CCC[C@H]1C(=O)N1CCC[C@H]1C(=O)N[C@H](C(=O)N[C@@H](CCC(=O)O)C(=O)N[C@@H](CCC(N)=O)C(=O)N[C@@H](CC(=O)O)C(=O)N[C@@H](CC(C)C)C(=O)N[C@@]1(C)CCC/C=C\CCC[C@@](C)(C(=O)N[C@@H](Cc2ccc(O)cc2)C(N)=O)NC(=O)[C@H](CC2CCCCC2)NC(=O)[C@H](CC(C)C)NC(=O)[C@H](CCCCN)NC1=O)[C@@H](C)O [ND1-YL2] (H-RLAAAALLPPTEQDL[S5]KL[Cha][S5]Y-NH2; staple (Z) 16-20)
Effect on cell survival [1]: did not significantly affect the survival
Effect on cell survival [2]: did not significantly affect the survival
Improved affinity for the UBR box compared to the RLAA tetrapeptide [3]: approximately 3 fold
Ki [3]: 1480 nM
Difference in binding affinity for target E3 ligase compared to CL1-YL2 ([3]; ND1-YL2 binds less strongly to its E3 ligase than CL1-YL2): ~10 fold
Selective degradation of SRC-1 over SRC-3 ([4]; 20 μM): selectively degraded only SRC-1
Time after treatment at which SRC-1 degradation was evident ([4]; 20 μM): 8 h
Time for which SRC-1 degradation was maintained without detectable recovery ([4]; 20 μM): 24 h
SRC-1 degradation, single agents compared ([4]; 20 μM, 12 hours): degradation of SRC-1 appeared only in ND1-YL2
Time to restoration of SRC-1 expression to the original level after removal of compound ([4]; 20 μM, after washing): ≤ 12 h
SRC-1 degradation ([4]; various concentrations, Western blot): strongest activity among the synthesized and treated compounds
DC50 ([4]; various concentrations, Western blot, read-out: DC50 for reduction of SRC-1 expression level): ~10000 nM
SRC-1 degradation when treated together with MG-132 ([4]; with proteasome inhibitor MG-132 (5 μM), 12 hours): did not show the effect of degrading SRC-1
Reduction of infiltrated MDA-MB-231-RFP cells in lungs compared to vehicle samples [5]: 40%
Ki [6]: 320 nM
